Results from US5670508A, “2-amino-6-alkyl-5-(4-substituted-1-piperazinyl) pyrimidin-4-ones, the preparation and use thereof” (National Science Council, priority 1995, dated 1997).
Like-named read-outs stand apart in the source and are kept apart here.

Legend:
CNS SNB75 cell line = assay: Cytotoxicity, NCI disease-oriented antitumor screening, CNS SNB75 cell line; format: cell-based; conditions: Homo sapiens, SNB-75
Source text: (§1) Compounds were subjected to the disease-oriented antitumor screening on 60 cancer cell lines in the National Cancer Institute of the U.S.A. (Grever, M. R. et al., Seminars in Oncology 1992, 19, 622~638). Results of cytotoxicity are summarized in Table 1, GI50 values represent the concentrations corresponding to 50% of growth inhibition.

[1] = system: human renal cancer cell lines; assay: Cytotoxicity, NCI disease-oriented antitumor screening, renal cancer cell lines; format: cell-based; conditions: range of GI50's for the renal cancer cell lines, read-out: Cytotoxic activity (GI50), renal
Source text: as §1

[2] = system: human breast cancer cell lines; assay: Cytotoxicity, NCI disease-oriented antitumor screening, breast cancer cell lines; format: cell-based; conditions: range of GI50's for the breast cancer cell lines, read-out: Cytotoxic activity (GI50), breast
Source text: as §1

[3] = system: human colon cancer cell lines; assay: Cytotoxicity, NCI disease-oriented antitumor screening, colon cancer cell lines; format: cell-based; conditions: range of GI50's for the colon cancer cell lines, read-out: Cytotoxic activity (GI50), colon
Source text: as §1

[4] = system: human ovarian cancer cell lines; assay: Cytotoxicity, NCI disease-oriented antitumor screening, ovarian cancer cell lines; format: cell-based; conditions: range of GI50's for the ovarian cancer cell lines, read-out: Cytotoxic activity (GI50), ovarian
Source text: as §1

[5] = system: human prostate cancer cell lines; assay: Cytotoxicity, NCI disease-oriented antitumor screening, prostate cancer cell lines; format: cell-based; conditions: range of GI50's for the prostate cancer cell lines, read-out: Cytotoxic activity (GI50), prostate
Source text: as §1

[6] = system: human CNS tumor cell lines; assay: Cytotoxicity, NCI disease-oriented antitumor screening, CNS tumor cell lines; format: cell-based; conditions: for selective cytotoxicity on human CNS tumor cell lines: in words
Source text: as §1

[7] = system: human lung cancer cell lines; assay: Cytotoxicity, NCI disease-oriented antitumor screening, lung cancer cell lines; format: cell-based; conditions: range of GI50's for the lung cancer cell lines, read-out: Cytotoxic activity (GI50), lung
Source text: as §1

CNS U251 cell line = assay: Cytotoxicity, NCI disease-oriented antitumor screening, CNS U251 cell line; format: cell-based; conditions: Homo sapiens, U-251, read-out: Cytotoxic activity (GI50), CNS
Source text: as §1

[8] = system: glycinamide ribonucleotide transformylase (GAR-Tfase); conditions: in words; Baldwin et al, 1991; cited from earlier work
[9] = CNS SNB75 cell line, read-out: Cytotoxic activity (GI50), CNS
[10] = SNB75 CNS cell line, read-out: GI50

SMILES | GI50 (CNS SNB75 cell line; [9]) | GI50 (CNS SNB75 cell line; [10]) | GI50 [1] | GI50 [2] | GI50 [3] | GI50 [4] | GI50 [5] | selective cytotoxicity on human CNS tumor cell lines [6] | GI50 [7] | GI50 (CNS U251 cell line) | GI50 ([6]; Homo sapiens, CNS cell lines, no single line specified, read-out: Cytotoxic activity (GI50), CNS) | inhibition of GAR-Tfase [8]
CCOC(=O)CCC(NC(=O)c1ccc(N2CCN(c3c(C)nc(N)[nH]c3=O)CC2)cc1)C(=O)OCC (stereo not shown) [Compound 8, Diethyl N-[4-[4-(2-Amino-6-methyl-4(3H)-oxopyrimidin-5-yl)piperazin-1-yl]benzoyl]glutamic acid] | < 0.01 µM | < 0.01 µM | > 100 µM | > 100 µM | > 100 µM | > 100 µM | > 100 µM | selective cytotoxicity | > 100 µM | – | – | –
Cc1nc(N)[nH]c(=O)c1N1CCN(c2ccc(S(=O)(=O)N(Cc3ccccc3)Cc3ccccc3)cc2)CC1 [Compound 11] | – | – | 3.1 to 27 µM | 2.1 to 37 µM | 55 µM | 0.7 to 16 µM | 1.9 to 3.5 µM | – | 4.8 to 79 µM | 3.68 µM | – | –
Cc1nc(N)[nH]c(=O)c1N1CCN(c2ccc(C(=O)NC(CCC(=O)O)C(=O)O)cc2)CC1 (stereo not shown) [Compound 9, N-[4-[4-(2-Amino-6-methyl-4-(3H)-oxopyrimidin-5-yl)piperazin-1-yl]benzoyl]glutamic acid] | < 0.01 µM | < 0.01 µM | > 100 µM | > 100 µM | > 100 µM | > 100 µM | > 100 µM | selective cytotoxicity | > 100 µM | – | – | –
Cc1nc(N)[nH]c(=O)c1N1CCN(c2ccc(C#N)cc2)CC1 [Compound 6, 4-[4-(2-Amino-6-methyl-4(3H)-oxopyrimidin-5-yl)piperazin-1-yl]benzonitrile] | 0.04 µM | – | > 100 µM | > 100 µM | > 100 µM | 93 µM | > 100 µM | selective cytotoxicity | > 100 µM | – | – | –
Cc1nc(N)[nH]c(=O)c1N1CCN(c2ccc([N+](=O)[O-])cc2)CC1 [Compound 10, 2-Amino-6-methyl-5-[4-(4-nitrophenyl)piperazin-1-yl]pyrimidin-4(3H)-one] | < 0.01 µM | < 0.01 µM | > 100 µM | > 100 µM | > 100 µM | > 100 µM | > 100 µM | selective cytotoxicity | > 100 µM | – | – | –
Cc1nc(N)[nH]c(=O)c1N1CCN(c2ccc(S(N)(=O)=O)cc2)CC1 [Compound 12, 4-[4-(2-Amino-6-methyl-4-(3H)-oxopyrimidin-5-yl)-piperazin-1-yl]benzenesulfonamide] | 0.1 µM | – | > 100 µM | > 100 µM | > 100 µM | > 100 µM | > 100 µM | selective cytotoxicity | > 100 µM | – | – | –
Cc1nc(N)[nH]c(=O)c1N1CCN(c2ccc(C(=O)O)cc2)CC1 [Compound 7, 4-[4-(2-Amino-6-methyl-4(3H)-oxopyrimidin-5-yl)piperazin-1-yl]benzoic acid] | – | – | 1.39 µM | > 100 µM | > 100 µM | > 100 µM | > 100 µM | – | > 100 µM | – | > 100 µM | –
Nc1nc2c(c(=O)[nH]1)CC(CCc1ccc(C(=O)N[C@@H](CCC(=O)O)C(=O)O)cc1)CN2 (stereo partly shown) [DDATHF, 5,10-dideaza-5,6,7,8-tetrahydrofolic acid] | – | – | – | – | – | – | – | – | – | – | – | potent inhibitor
